For 24 molecules, pest or weed control and inhibition of growth results are on record in patent publication US11180462B2, “Microbiocidal oxadiazole derivatives” (SYNGENTA PARTICIPATIONS AG, priority 2015, dated 2021).

Assay [1] relates to Puccinia recondita f. Sp. Tritici. Nature of the assay: Fungicidal activity against Puccinia recondita f. sp. tritici / wheat / leaf disc preventative (brown rust). It counts as in vivo. Particulars: foliar, 200 ppm in the applied formulation, wheat leaf segments, preventative, compared to untreated control leaf disks, read-out: disease control. Put shortly:
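Preventative leaf-segment test, wheat cv. Kanzler on water agar. Spray compound at 200 ppm, inoculate with spores 1 day later; 19° C., 75% rh, 12/12 h light. Read-out: % disease control vs untreated, 7 to 9 days after application.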

Assay [2] has the same test system. The assay is described as follows: Fungicidal activity against Puccinia recondita f. sp. tritici / wheat / leaf disc curative (brown rust). It is filed as in vivo. Particulars: foliar, 24 h, 200 ppm in the applied formulation, wheat leaf segments, curative (applied 1 day after inoculation), compared to untreated control leaf disks, read-out: disease control. On the procedure: Leaf disks or leaf segments of various plant species are cut from plants grown in a greenhouse. The cut leaf disks or segments are placed in multiwell plates (24-well format) onto water agar. The leaf disks are sprayed with a test solution before (preventative) or after (curative) inoculation. Compounds to be tested are prepared as DMSO solutions (max. 10 mg/ml) which are diluted to the appropriate concentration with 0.025% Tween20 just before spraying. The inoculated leaf disks or segments are incubated under defined conditions (temperature, relative humidity, light, etc.) according to the respective test system. A single evaluation of disease level is carried out 3 to 14 days after inoculation, depending on the pathosystem. Percent disease control relative to the untreated check leaf disks or segments is then calculated.
Fungicidal Activity Against Puccinia recondita f. Sp. Tritici/Wheat/Leaf Disc Curative (Brown Rust)
Wheat leaf segments cv. Kanzler are placed on agar in multiwell plates (24-well format). The leaf segments are then inoculated with a spore suspension of the fungus. Plates were stored in darkness at 19° C. and 75% relative humidity. The formulated test compound diluted in water was applied 1 day after inoculation. The leaf segments were incubated at 19° C. and 75% relative humidity under a light regime of 12 hours light/12 hours darkness in a climate cabinet and the activity of a compound was assessed as percent disease control compared to untreated when an appropriate level of disease damage appears in untreated check leaf segments (6 to 8 days after application).
The following compounds at 200 ppm in the applied formulation give at least 80% disease control in this test when compared to untreated control leaf disks under the same conditions, which show extensive disease development.

Assay [3] concerns Glomerella lagenarium (Colletotrichum lagenarium). Nature of the assay: Fungicidal activity against Glomerella lagenarium (Colletotrichum lagenarium) liquid culture / cucumber / preventative (anthracnose). It counts as cell-based. Particulars: Colletotrichum orbiculare; 20 ppm in the applied formulation; liquid culture (PDB), growth inhibition measured photometrically after 3 to 4 days; compared to untreated control; read-out: disease control. An outline of the steps: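 Photometric read-out of fungal growth after 2–7 days, expressed as percent antifungal activity versus untreated check. Cryo-stored conidia in PDB; compound at 20 ppm; dark, 24 °C, 96% RH.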

Consider `C#CCN(Cc1ccc(-c2noc(C(F)(F)F)n2)cc1)C(=O)C1CCSCC1` [Compound 1.188, N-prop-2-ynyl-N-[[4-[5-(trifluoromethyl)-1,2,4-oxadiazol-3-yl]phenyl]methyl]-tetrahydrothiopyran-4-carboxamide], for which the pest or weed control at 200 ppm in assay [1] and in assay [2] was at least 80% each time.
Regarding `CON(Cc1ccc(-c2noc(C(F)(F)F)n2)cc1)C(=O)c1cccc(C(F)(F)F)c1` [Compound 1.13, N-methoxy-3-(trifluoromethyl)-N-[[4-[5-(trifluoromethyl)-1,2,4-oxadiazol-3-yl]phenyl]methyl]-benzamide], the inhibition of growth at 20 ppm in assay [3] is at least 80%. Also, in assay [2], the pest or weed control at 200 ppm is at least 80%.
Turning to `CCCC(C)(C)C(=O)N(Cc1ccc(-c2noc(C(F)(F)F)n2)cc1)CC1CC1` [Compound 1.204, N-(cyclopropylmethyl)-2,2-dimethyl-N-[[4-[5-(trifluoromethyl)-1,2,4-oxadiazol-3-yl]phenyl]methyl]-pentanamide], in assay [2], the pest or weed control at 200 ppm is at least 80%.
For `CON(Cc1ccc(-c2noc(C(F)(F)F)n2)cc1)C(=O)OCCF` [Compound 2.15, 2-fluoroethyl N-methoxy-N-[[4-[5-(trifluoromethyl)-1,2,4-oxadiazol-3-yl]phenyl]methyl]-carbamate], in assay [3], the inhibition of growth at 20 ppm was at least 80%. Moreover, the pest or weed control at 200 ppm in assay [2] is at least 80%.
For `C#CCN(Cc1ccc(-c2noc(C(F)(F)F)n2)cc1)C(=O)CCc1ccc(Cl)cc1` [Compound 1.160, 3-(4-chlorophenyl)-N-prop-2-ynyl-N-[[4-[5-(trifluoromethyl)-1,2,4-oxadiazol-3-yl]phenyl]methyl]-propanamide], the pest or weed control at 200 ppm in assay [2] was at least 80%.
In the case of `C#CCOC(=O)N(Cc1ccc(-c2noc(C(F)(F)F)n2)cc1)OC` [Compound 2.20, prop-2-ynyl N-methoxy-N-[[4-[5-(trifluoromethyl)-1,2,4-oxadiazol-3-yl]phenyl]methyl]-carbamate], in assay [3], the inhibition of growth at 20 ppm is at least 80%. Further, in assay [2], the pest or weed control at 200 ppm was at least 80%.
For `O=C(C1CCCC1)N(Cc1ccc(-c2noc(C(F)(F)F)n2)cc1)Cc1ccco1` [Compound 1.455, N-(2-furylmethyl)-N-[[4-[5-(trifluoromethyl)-1,2,4-oxadiazol-3-yl]phenyl]methyl]-cyclopentane-carboxamide], the inhibition of growth at 20 ppm in assay [3] was at least 80%. Also, the pest or weed control at 200 ppm in assay [2] was at least 80%.
Consider `COCCN(Cc1ccc(-c2noc(C(F)(F)F)n2)cc1)C(=O)C1CCCN1C(C)=O` (centres unmarked) [Compound 1.357, 1-acetyl-N-(2-methoxyethyl)-N-[[4-[5-(trifluoromethyl)-1,2,4-oxadiazol-3-yl]phenyl]methyl]-pyrrolidine-2-carboxamide], for which the pest or weed control at 200 ppm in assay [1] and in assay [2] was at least 80% in each case.
With `COCCN(Cc1ccc(-c2noc(C(F)(F)F)n2)cc1)C(=O)C1(F)CC1` [Compound 1.349, 1-fluoro-N-(2-methoxyethyl)-N-[[4-[5-(trifluoromethyl)-1,2,4-oxadiazol-3-yl]phenyl]methyl]-cyctopropane-carboxamide], the inhibition of growth at 20 ppm in assay [3] is at least 80%. Moreover, in assay [2], the pest or weed control at 200 ppm is at least 80%.
As to `O=C(C1CC1F)N(Cc1ccc(-c2noc(C(F)(F)F)n2)cc1)CC1CCCO1` (centres unmarked) [Compound 1.445, 2-fluoro-N-(tetrahydrofuran-2-ylmethyl)-N-[[4-[5-(trifluoromethyl)-1,2,4-oxadiazol-3-yl]phenyl]methyl]-cyclopropane-carboxamide], the inhibition of growth at 20 ppm in assay [3] was at least 80%. Further, the pest or weed control at 200 ppm in assay [2] was at least 80%.
On to `CCC(COC)C(=O)N(CCOC)Cc1ccc(-c2noc(C(F)(F)F)n2)cc1` (centres unmarked) [Compound 1.353, N-(2-methoxyethyl)-2-(methoxymethyl)-N-[[4-[5-(trifluoromethyl)-1,2,4-oxadiazol-3-yl]phenyl]methyl]-butanamide], for which the pest or weed control at 200 ppm in assay [1] and in assay [2] was at least 80% in each case.
On to `CCCON(Cc1ccc(-c2noc(C(F)(F)F)n2)cc1)C(=O)C1OCCO1` [Compound 1.317, N-propoxy-N-[[4-[5-(trifluoromethyl)-1,2,4-oxadiazol-3-yl]phenyl]methyl]-1,3-dioxolane-2-carboxamide], for which the inhibition of growth at 20 ppm in assay [3] was at least 80%. Moreover, in assay [2], the pest or weed control at 200 ppm was at least 80%.
On to `CON(Cc1ccc(-c2noc(C(F)(F)F)n2)cc1)C(=O)OCCCl` [Compound 2.17, 2-chloroethyl N-methoxy-N-[[4-[5-(trifluoromethyl)-1,2,4-oxadiazol-3-yl]phenyl]methyl]-carbamate], for which, in assay [3], the inhibition of growth at 20 ppm is at least 80%. In assay [2], the pest or weed control at 200 ppm was at least 80%.
Regarding `O=C(CCCCC(F)(F)F)N(Cc1ccc(-c2noc(C(F)(F)F)n2)cc1)C1CC1` [Compound 1.131, N-cyclopropyl-6,6,6-trifluoro-N-[[4-[5-(trifluoromethyl)-1,2,4-oxadiazol-3-yl]phenyl]methyl]-hexanamide], the inhibition of growth at 20 ppm in assay [3] was at least 80%. The pest or weed control at 200 ppm in assay [2] is at least 80%.
`CC(=O)N1CCCC1C(=O)N(Cc1ccc(-c2noc(C(F)(F)F)n2)cc1)CC1CCCO1` (centres unmarked) [Compound 1.444, 1-acetyl-N-(tetrahydrofuran-2-ylmethyl)-N-[[4-[5-(trifluoromethyl)-1,2,4-oxadiazol-3-yl]phenyl]methyl]-pyrrolidine-2-carboxamide]: the pest or weed control at 200 ppm in assay [2] was at least 80%.
Regarding `CNC(=O)CN(C)C(=O)N(C)Cc1ccc(-c2noc(C(F)(F)F)n2)cc1` [Compound 3.68, N-methyl-2-[methyl-[methyl-[[4-[5-(trifluoromethyl)-1,2,4-oxadiazol-3-yl]phenyl]methyl]-carbamoyl]-amino]acetamide], the pest or weed control at 200 ppm in assay [1] and in assay [2] was at least 80% throughout.
Turning to `C#CCN(Cc1ccc(-c2noc(C(F)(F)F)n2)cc1)C(=O)C(C)(C)CCC` [Compound 1.153, 2,2-dimethyl-N-prop-2-ynyl-N-[[4-[5-(trifluoromethyl)-1,2,4-oxadiazol-3-yl]phenyl]methyl]-pentanamide], in assay [3], the inhibition of growth at 20 ppm is at least 80%. Besides, the pest or weed control at 200 ppm in assay [2] is at least 80%.
`CCC(C)N(Cc1ccc(-c2noc(C(F)(F)F)n2)cc1)C(=O)C1=CCCC1` (centres unmarked) [Compound 1.377, N-sec-butyl-N-[[4-[5-(trifluoromethyl)-1,2,4-oxadiazol-3-yl]phenyl]methyl]-cyclopentene-1-carboxamide]: in assay [3], the inhibition of growth at 20 ppm is at least 80%. For the same molecule, the pest or weed control at 200 ppm in assay [2] is at least 80%.
As to `CCN(Cc1ccc(-c2noc(C(F)(F)F)n2)cc1)C(=O)N(C)CC(=O)NC` [Compound 3.86, 2-[[ethyl-[[4-[5-(trifluoromethyl)-1,2,4-oxadiazol-3-yl]phenyl]methyl]-carbamoyl]-methyl-amino]-N-methyl-acetamide], the pest or weed control at 200 ppm in assay [1] and in assay [2] was at least 80% each time.
Take `CON(Cc1ccc(-c2noc(C(F)(F)F)n2)cc1)C(=O)c1cccc2ccccc12` [Compound 1.37]: the inhibition of growth at 20 ppm in assay [3] was at least 80%. In addition, the pest or weed control at 200 ppm in assay [2] is at least 80%.
For the molecule `C=CCOC(=O)N(Cc1ccc(-c2noc(C(F)(F)F)n2)cc1)OC` [Compound 2.11, allyl N-methoxy-N-[[4-[5-(trifluoromethyl)-1,2,4-oxadiazol-3-yl]phenyl]methyl]-carbamate], the inhibition of growth at 20 ppm in assay [3] was at least 80%. Moreover, the pest or weed control at 200 ppm in assay [2] was at least 80%.
Consider `C#CCC(NS(=O)(=O)CC)C(=O)N(Cc1ccc(-c2noc(C(F)(F)F)n2)cc1)C1CC1` (centres unmarked) [Compound 1.137, N-cyclopropyl-2-(ethylsulfonylamino)-N-[[4-[5-(trifluoromethyl)-1,2,4-oxadiazol-3-yl]phenyl]methyl]pent-4-ynamide], for which the pest or weed control at 200 ppm in assay [2] was at least 80%.
`CCN(Cc1ccc(-c2noc(C(F)(F)F)n2)cc1)C(=O)N(CC)CC1CC1` [Compound 3.100, 1-(cyclopropylmethyl)-1,3-diethyl-3-[[4-[5-(trifluoromethyl)-1,2,4-oxadiazol-3-yl]phenyl]methyl]urea]: the inhibition of growth at 20 ppm in assay [3] was at least 80%. In addition, the pest or weed control at 200 ppm in assay [2] is at least 80%.
For the molecule `CON(Cc1ccc(-c2noc(C(F)(F)F)n2)cc1)C(=O)Cc1ccc(C#N)cc1` [Compound 1.52, 2-(4-cyanophenyl)-N-methoxy-N-[[4-[5-(trifluoromethyl)-1,2,4-oxadiazol-3-yl]phenyl]methyl]-acetamide], the pest or weed control at 200 ppm in assay [1] and in assay [2] was at least 80% each time.
